{"source": "paper PMC11120408", "about": "(Foods, 2024)", "type_in_all_cases": "biochemical, bovine", "key": {"[1]": {"target": "T1, BSA–fructose (Fru) system (Bos taurus, UniProt P02769)", "T1 sequence (P02769 25-607)": "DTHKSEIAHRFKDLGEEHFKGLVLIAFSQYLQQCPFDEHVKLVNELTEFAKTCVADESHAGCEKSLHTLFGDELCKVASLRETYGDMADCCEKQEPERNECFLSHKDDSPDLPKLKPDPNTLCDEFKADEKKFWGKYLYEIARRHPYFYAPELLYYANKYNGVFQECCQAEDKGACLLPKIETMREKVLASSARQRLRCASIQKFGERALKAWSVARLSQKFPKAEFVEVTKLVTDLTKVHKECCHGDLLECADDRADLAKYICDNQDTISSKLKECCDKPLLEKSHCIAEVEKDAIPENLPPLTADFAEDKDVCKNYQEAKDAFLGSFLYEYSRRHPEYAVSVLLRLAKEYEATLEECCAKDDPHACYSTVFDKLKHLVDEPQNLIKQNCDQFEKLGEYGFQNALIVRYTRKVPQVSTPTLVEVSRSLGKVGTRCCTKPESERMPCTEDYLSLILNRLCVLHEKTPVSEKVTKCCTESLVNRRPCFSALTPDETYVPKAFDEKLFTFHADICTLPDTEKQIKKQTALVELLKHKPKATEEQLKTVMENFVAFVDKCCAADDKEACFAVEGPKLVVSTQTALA", "assay": "Anti-glycation: glycation products in BSA–Fru system", "conditions": "0.200 mg mL^−1; end stage", "description": "Considering that Monascus pigments (MPs) are usually applied in the form of a mixture, the extract of Monascus-fermented rice (a high content of six known Monascus pigments, Figure S2) was selected to evaluate the anti-glycation capacity of MPs in a reaction in vitro using BSA as a model protein glycation by Fru. Briefly, BSA and Fru were dissolved in PBS solution of pH 7.4, and their final concentrations were 10.0 mg mL^−1 and 0.5 M, respectively. Then, a series of MPs were added into the above system with final concentrations of 0.005, 0.025, 0.050, 0.100, 0.150, and 0.200 mg mL^−1. After filtered through a sterile 0.22 μm membrane, the reaction mixture was incubated at 323 K for 24 h. The glycosylation products, namely fructosamine (in the early stage), α-dicarbonyl compounds (in the middle stage), and fluorescent AGEs (in the end stage), were detected according to our previous report. Here, AG was a positive control."}, "[2]": {"target": "T1, BSA–fructose (Fru) system", "assay": "Total carbonyl and thiol group content of glycated BSA", "conditions": "0.200 mg mL^−1", "description": "A reported method was adopted and a slight modification was made to determine the protein carbonyl group content (PCO). Briefly, 100 μL of native BSA solution or sample solution acquired in Section 2.4.1 was incubated with DNPH solution (400 μL, 10 mM, dissolved in 2.0 M HCl) for 1 h at room temperature, with vortexing every 10 min. The sample solution without DNPH was regarded as the blank group. Then, 1000 μL of trichloroacetic acid (TCA) solution (20% (w/v)) was added, and the resulting mixture was kept at 277 K for 10 min, followed by centrifugation (10,000 rpm, 10 min, 277 K). The residue was extracted with ethanol/ethyl acetate (1:1, v/v) three times, and subsequently suspended and mixed thoroughly in 1000 μL of guanidine hydrochloride (6.0 M, pH 6.6), followed by incubating at 310 K for 15 min. The UV absorbance was recorded at 370 nm on an Infinite® M200 PRO plate reader (Tecan, Männedorf, Switzerland). The total protein carbonyl group content was calculated using the following equation:(4) PCO(nmol/mg protein)=Asample−AblankVreaction/ε1dVsampleCpro×1000 where Asample and Ablank are the absorbances of a tested sample with or without DNPH, respectively. ε1 represents the absorption coefficient of 22,000 M^−1cm^−1, and d is the cuvette length (0.5 cm). […]\nThe content of the free SH group was assessed using Ellman’s method with slight changes. […]"}, "[3]": {"target": "T1, BSA–fructose (Fru) system", "assay": "Structural analysis of glycated BSA (CD, ThT cross-β structure)", "description": "The changes in the secondary structures of the proteins were determined using the CD spectroscopy method on a New MOS-450 spectropolarimeter (Biologic, Seyssinet-Pariset, France). The spectra were collected over the far-UV range of 200–260 nm using a quartz cell (with an inner diameter of 1 mm) under an atmosphere of nitrogen at room temperature. Each spectrum was the average of at least three consecutive scans at a scan speed of 100 nm min^−1 with a bandwidth of 1 nm, and it was corrected for the buffer signal. The proportion of different secondary structures was calculated using the online CONTIN program (http://dichroweb.cryst.bbk.ac.uk/html/home.shtml, accessed on 4 April 2023).\nThe secondary structure contents of BSA before and after glycosylation were determined using CD measurement referring to the experimental procedure in Section 2.3.2.\nAs a popular fluorescent probe for protein aggregation, thioflavin T (ThT) was used for the detection of the amyloid β-structure of glycated BSA [29, 30]. The samples were treated with ThT (a final concentration of 0.016 mg mL^−1) at room temperature for 1 h in the dark. The ThT fluorescence intensity (excitation: 435 nm; emission: 485 nm) of the sample was recorded on a spectrofluorometer."}, "[4]": {"target": "T1, BSA–fructose (Fru) system", "assay": "Surface hydrophobicity of glycated BSA (BPB, ANS)"}}}
{"smiles": "N=C(N)NN", "note": "[AG, aminoguanidine]", "values": [{"measurement": "inhibition rate of fluorescent AGE formation", "setting": "[1]", "value": 75.7, "unit": "%"}, {"measurement": "free SH group content of glycated BSA after treatment", "setting": "[2]; glycated BSA 2.3, native BSA 3.6", "value": 2.7, "unit": "µmol/g"}, {"measurement": "carbonyl group content of glycated BSA after treatment", "setting": "[2]; glycated BSA 35.6, native BSA 2.5", "value": 15.7, "unit": "nmol/mg"}, {"measurement": "inhibition rate against generation of cross-β structure (ThT)", "setting": "[3]; 0.005 mg mL^−1", "value": 27.6, "unit": "%"}, {"measurement": "inhibition rate against generation of cross-β structure (ThT)", "setting": "[3]; 0.200 mg mL^−1", "value": 41.4, "unit": "%"}, {"measurement": "α-helical structure content of treated glycated BSA (CD)", "setting": "[3]; glycated BSA 47.8%, native BSA 67.6%", "value": 58.3, "unit": "%"}, {"measurement": "change of ANS fluorescence intensity of glycated BSA", "setting": "[4]; ANS binding", "value": "increased slightly"}, {"measurement": "change of BPB content bound to glycated BSA (surface hydrophobicity)", "setting": "[4]; BPB binding", "value": "increased"}]}
